Data as given in US9040080B2, “Processing of heat-sensitive active agents” (SOUTHWEST RESEARCH INSTITUTE, priority 2008, dated 2015).

Key:
[1] = HPLC analysis of thermal degradation of brinzolamide in extruded fibers; format: physicochemical; conditions: PLGA microspheres (40%) extruded with poly(caprolactone) (60%)
From the text: The active ingredient brinzolamide was microencapsulated in two poly(lactic acid-co-glycolic acid) (PLGA) copolymers, one having a molar ratio of 75/25 (PLGA7525) and one having a molar ratio of 85/15 (PLGA 8515) as discussed further below. The theoretical amount of active agent was 40% by weight in each microencapsulation formulation. The two microsphere formulations were extruded with a lower melting point polymer, poly(caprolactone) (CAPA686), wherein the microspheres were present at 40% by weight and the poly(caprolactone) was present at 60% by weight, forming fibers incorporating the microcapsules therein.

[2] = Drug degradation on direct melt processing (extrusion) with PLGA; format: physicochemical; conditions: directly melt processed by extrusion with poly(lactic acid-co glycolic acid) at 75:25 and 85:15 molar ratios, 140° C.-160° C.
Method: For example, about 5% drug degradation was found when brinzolamide, having a melting point in the range of 130-131° C. was directly melt processed by extrusion with poly(lactic acid-co glycolic acid) at 75:25 and 85:15 molar ratios. Melt processing temperatures of the poly(lactic-co glycolic acid) were in the range of 140° C.-160° C.

thermal degradation of brinzolamide in the fibers [1]: absence of thermal degradation
drug degradation [2]: about 5%
SMILES: CCN[C@H]1CN(CCCOC)S(=O)(=O)c2sc(S(N)(=O)=O)cc21 [brinzolamide, (R)-(+)-4-Ethylamino-2-(3-methoxypropyl)-3,4-dihydro-2H-thieno[3,2-e]-1,2-thiazine-6-sulfonamide-1,1-dioxide]
